Reference: patent US20110030077A1, “METHODS OF MODULATING THE ORGANIC SOLUTE AND STEROID TRANSPORTER (OSTalpha-OSTbeta) ACTIVITY AND TREATING ASSOCIATED CONDITIONS” (UNIVERSITY OF ROCHESTER, priority 2009, published 2011)

Legend:
[1] = intraileal injection
Protocol: [^3H]Estrone 3-sulfate, 0.005 μmol/100 μl, was injected directly into the ileal lumen of Ostα^+/+ and Ostα^−/− male (FIG. 18C) and female (FIG. 18D) mice. Tissues were collected for analysis of radioactivity after 30 min.
Mice that had been fed ad libitum were anesthetized by intraperitoneal administration of pentobarbital sodium (50 mg/kg) and additional anesthetic was administered as required for the duration of the experiment. […] At the end of the experiments, 150-300 μl of blood was collected from the abdominal aorta in a tared 1 ml syringe containing 50 μl of heparin (1000 U/ml). The small intestine was removed and segmented into 3 parts, where the first third after the stomach comprised the duodenum, the middle third the jejunum, and the section before the ileo-ceco-colic junction comprised the ileum. Colon, liver, gallbladder, kidney and the urinary bladder were also removed and weighed. The contents of the small intestine, colon, gallbladder and urinary bladder were included in the analysis. For the liver, approximately 0.2-0.4 g of tissue was taken for analysis of radioisotope content. Tissue and blood samples were placed in tared 20-ml glass vials, and Solvable (Perkin-Elmer, Life and Analytical Sciences, Boston, Mass.) was added to each vial (1.0 ml/0.1 g tissue or 2.0 ml/1.0 ml blood), which was then heated to 60° C. for 2 to 3 h. The vials were allowed to cool to room temperature, and 0.1 ml of 0.1 M EDTA/1.0 ml of Solvable was added to each vial of blood. H2O2 (30%) was then added in 0.1-ml aliquots (0.3 ml/1.0 ml Solvable for blood or 0.1 ml/1.0 ml Solvable for tissues). After standing at room temperature for 15 to 30 min, the vials were capped tightly and heated to 60° C. for 1 h and allowed to cool back to room temperature. After the addition of scintillation fluid (4 ml of Opti-Fluor to 200 μl of each sample) (Perkin-Elmer, Life and Analytical Sciences, Boston, Mass.), the samples were allowed to stand for at least 2 h at room temperature before counting. Samples were counted in a Beckman LS 6500 scintillation counter (Beckman Coulter, Fullerton, Calif.). […]

Ostα-YN (mouse) = assay: cell-based or functional assay
Chain of Ostα-YN (mouse) (Q8R000 whole entry): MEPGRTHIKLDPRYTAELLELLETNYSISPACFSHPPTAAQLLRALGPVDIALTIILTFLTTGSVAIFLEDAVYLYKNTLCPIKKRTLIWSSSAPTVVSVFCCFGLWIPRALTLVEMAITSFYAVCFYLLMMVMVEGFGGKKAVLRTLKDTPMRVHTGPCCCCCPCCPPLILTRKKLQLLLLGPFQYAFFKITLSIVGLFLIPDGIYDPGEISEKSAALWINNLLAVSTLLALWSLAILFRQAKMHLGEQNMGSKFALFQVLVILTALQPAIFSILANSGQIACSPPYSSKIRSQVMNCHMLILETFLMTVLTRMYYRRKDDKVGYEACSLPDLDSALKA

C[C@H](CCC(=O)NCCS(=O)(=O)O)[C@H]1CC[C@H]2[C@@H]3[C@H](O)C[C@@H]4C[C@H](O)CC[C@]4(C)[C@H]3C[C@H](O)[C@]12C [taurocholate, taurocholic acid]
absorption from the ileum ([1]; wild type mice, 15 min): > 90%

Ostβ29-53-YC (peptide)
[3H]taurocholate transport in cells co-transfected with Ostα-YN and Ostβ-YC (Ostα-YN (mouse)): 30%

estrone 3-sulfate [estrone sulfate]
fraction absorbed from the ileum ([1]; Ostα−/− mice, 30 min): 20-30%
removed from the ileum ([1]; wild type mice, 30 min): 60-70%
